According to article PMC11822212, “High-throughput screening identifies Aurora kinase B as a critical therapeutic target for Merkel cell carcinoma” (Nature Communications, 2025):
Where “and” joins values, the source holds several entries; their conditions need not be identical. Equal entries are not always repeated. Where two headings read alike, the source gives them in different places.

What was measured:
Experiment in all cases: qHTS cell viability (CellTiter-Glo, 72 h; primary and follow-up small molecule screen)
Type in all cases: cell-based, human
MCC13 cells (VN-MCC) = system: MCC13 cells (VN-MCC)
WAGA cells (VP-MCC) = system: WAGA cells (VP-MCC)
MCC26 cells (VN-MCC) = system: MCC26 cells (VN-MCC)
MKL-1 cells (VP-MCC) = system: MKL-1 cells (VP-MCC)
MKL-2 cells (VP-MCC) = system: MKL-2 cells (VP-MCC)
UISO cells (VN-MCC) = system: UISO cells (VN-MCC)
[1] = follow-up screen, MCC13, replicate 1
[2] = follow-up screen, MCC13, replicate 2
[3] = follow-up screen, MCC13, replicate 3
[4] = follow-up screen, WAGA, replicate 1
[5] = follow-up screen, WAGA, replicate 2
[6] = follow-up screen, WAGA, replicate 3
[7] = follow-up screen, MCC26, replicate 1
[8] = follow-up screen, MCC26, replicate 2
[9] = follow-up screen, MCC26, replicate 3
[10] = follow-up screen, MKL-1, replicate 1
[11] = follow-up screen, MKL-1, replicate 2
[12] = follow-up screen, MKL-1, replicate 3
[13] = follow-up screen, MKL-2, replicate 1
[14] = follow-up screen, MKL-2, replicate 2
[15] = follow-up screen, MKL-2, replicate 3
[16] = follow-up screen, UISO, replicate 1
[17] = follow-up screen, UISO, replicate 2
[18] = follow-up screen, UISO, replicate 3

| Molecule | Area under the dose-response curve (AUC) MCC13 Replicate 1 (MCC13 cells (VN-MCC); [1]) | Area under the dose-response curve (AUC) MCC13 Replicate 2 (MCC13 cells (VN-MCC); [2]) | Area under the dose-response curve (AUC) MCC13 Replicate 3 (MCC13 cells (VN-MCC); [3]) | Area under the dose-response curve (AUC) WAGA Replicate 1 (WAGA cells (VP-MCC); [4]) | Area under the dose-response curve (AUC) WAGA Replicate 2 (WAGA cells (VP-MCC); [5]) | Area under the dose-response curve (AUC) WAGA Replicate 3 (WAGA cells (VP-MCC); [6]) | Area under the dose-response curve (AUC) MCC26 Replicate 1 (MCC26 cells (VN-MCC); [7]) | Area under the dose-response curve (AUC) MCC26 Replicate 2 (MCC26 cells (VN-MCC); [8]) | Area under the dose-response curve (AUC) MCC26 Replicate 3 (MCC26 cells (VN-MCC); [9]) | Area under the dose-response curve (AUC) MKL-1 Replicate 1 (MKL-1 cells (VP-MCC); [10]) | Area under the dose-response curve (AUC) MKL-1 Replicate 2 (MKL-1 cells (VP-MCC); [11]) | Area under the dose-response curve (AUC) MKL-1 Replicate 3 (MKL-1 cells (VP-MCC); [12]) | Area under the dose-response curve (AUC) MKL-2 Replicate 1 (MKL-2 cells (VP-MCC); [13]) | Area under the dose-response curve (AUC) MKL-2 Replicate 2 (MKL-2 cells (VP-MCC); [14]) | Area under the dose-response curve (AUC) MKL-2 Replicate 3 (MKL-2 cells (VP-MCC); [15]) | Area under the dose-response curve (AUC) UISO Replicate 1 (UISO cells (VN-MCC); [16]) | Area under the dose-response curve (AUC) UISO Replicate 2 (UISO cells (VN-MCC); [17]) | Area under the dose-response curve (AUC) UISO Replicate 3 (UISO cells (VN-MCC); [18]) | other results |
| --- | --- | --- | --- | --- | --- | --- | --- | --- | --- | --- | --- | --- | --- | --- | --- | --- | --- | --- | --- |
| CN(C)C(=S)SSC(=S)N(C)C [Thiram] | 426.5 | 421.8 | 374.2 | 336.4 | 438.2 | 469.3 | 337.3 | 393.8 | 315.2 | 288.7 | 292.8 | 242.1 | 303.0 | 281.4 | 269.4 | 236.0 | 292.8 | 254.7 |  |
| Nc1nc(Cl)nc2c1ncn2[C@@H]1O[C@H](CO)[C@@H](O)[C@@H]1F [Clofarabine] | 326.5 | 337.3 | 347.1 | 261.2 | 248.1 | 263.5 | 347.1 | 310.6 | 353.8 | 270.1 | 265.5 | 283.6 | 314.2 | 343.5 | 397.2 | 305.8 | 296.3 | 317.2 |  |
| C[C@H]1CCC/C=C/[C@@H]2C[C@H](O)C[C@H]2[C@H](O)/C=C/C(=O)O1 [Cyanein] | 216.1 | 230.2 | 238.1 | 224.1 | 259.2 | 236.6 | 231.7 | 265.8 | 194.4 | 208.9 | 220.0 | 232.6 | 238.6 | 217.1 | 214.7 | 206.3 | 227.9 | 213.5 |  |
| AZD-4547 |  |  |  |  |  |  |  |  |  |  |  |  |  |  |  |  |  |  | Area under the dose-response curve (AUC) (MCC13 cells (VN-MCC)): 385.3 and 349.5 and 390.1; Area under the dose-response curve (AUC) (WAGA cells (VP-MCC)): 425.9 and 443.6 and 367.2; Area under the dose-response curve (AUC) (MCC26 cells (VN-MCC)): 311.4 and 288.0 and 307.4; Area under the dose-response curve (AUC) (MKL-1 cells (VP-MCC)): 362.7 and 390.5 and 360.0; Area under the dose-response curve (AUC) (MKL-2 cells (VP-MCC)): 380.8 and 390.1 and 354.8; Area under the dose-response curve (AUC) (UISO cells (VN-MCC)): 337.7 and 347.0 and 331.2 |
| CC[C@@]1(O)C(=O)OCc2c1cc1n(c2=O)Cc2cc3cc(O)ccc3nc2-1 [10-hydroxycamptothecin] |  |  |  |  |  |  |  |  |  |  |  |  |  |  |  |  |  |  | Area under the dose-response curve (AUC) MCC13 Replicate 1 (MCC13 cells (VN-MCC)): 287.3; Area under the dose-response curve (AUC) MCC13 Replicate 2 (MCC13 cells (VN-MCC)): 291.9; Area under the dose-response curve (AUC) MCC13 Replicate 3 (MCC13 cells (VN-MCC)): 277.2; Area under the dose-response curve (AUC) WAGA Replicate 1 (WAGA cells (VP-MCC)): 195.8; Area under the dose-response curve (AUC) WAGA Replicate 2 (WAGA cells (VP-MCC)): 197.2; Area under the dose-response curve (AUC) WAGA Replicate 3 (WAGA cells (VP-MCC)): 184.4; Area under the dose-response curve (AUC) MCC26 Replicate 1 (MCC26 cells (VN-MCC)): 260.5; Area under the dose-response curve (AUC) MCC26 Replicate 2 (MCC26 cells (VN-MCC)): 244.0; Area under the dose-response curve (AUC) MCC26 Replicate 3 (MCC26 cells (VN-MCC)): 250.0; Area under the dose-response curve (AUC) MKL-1 Replicate 1 (MKL-1 cells (VP-MCC)): 214.0; Area under the dose-response curve (AUC) MKL-1 Replicate 2 (MKL-1 cells (VP-MCC)): 217.0; Area under the dose-response curve (AUC) MKL-1 Replicate 3 (MKL-1 cells (VP-MCC)): 223.0; Area under the dose-response curve (AUC) MKL-2 Replicate 1 (MKL-2 cells (VP-MCC)): 184.7; Area under the dose-response curve (AUC) MKL-2 Replicate 2 (MKL-2 cells (VP-MCC)): 164.5; Area under the dose-response curve (AUC) MKL-2 Replicate 3 (MKL-2 cells (VP-MCC)): 246.0; Area under the dose-response curve (AUC) UISO Replicate 1 (UISO cells (VN-MCC)): 187.9; Area under the dose-response curve (AUC) UISO Replicate 2 (UISO cells (VN-MCC)): 199.3; Area under the dose-response curve (AUC) UISO Replicate 3 (UISO cells (VN-MCC)): 183.4 |
